Test results from ChEMBL document CHEMBL5038666, “Discovery of DNA-Targeting HDAC Inhibitors with Potent Antitumor Efficacy In Vivo That Trigger Antitumor Immunity” (J Med Chem, 2022).
Values belong to the compound of their own block, whether it stands above or below them. Calls of active or inactive are those of the source. The calls are words filed in the database; no cut-off is given here.

What was measured:
Histone deacetylase = experiment: Inhibition of HDAC in human HeLa nuclear extract using fluorogenic substrate incubated for 30 mins by fluorescence based assay; format: cell-based
KG-1 [1] = experiment: Antiproliferative activity against human KG-1 cells assessed as inhibition of cell growth measured after 48 hrs by MTT assay; format: functional, cell-based; conditions: KG-1, 48 h
B16-F10 [2] = experiment: Antitumor activity against mouse B16-F10 cells implanted in C57BL/6J mouse assessed as reduction on tumor volume at 60 mg/kg, IG administered for 12 days; format: functional, organism-based; conditions: time 12.0 day
[3] = Toxicity in C57BL/6J mouse implanted with mouse B16-F10 cells assessed as effect on body weight at 60 mg/kg, IG administered for 12 days; format: organism-based; conditions: in vivo, po, 288 h, time 12 day
B16-F10 [4] = experiment: Antitumor activity against mouse B16-F10 cells xenografted in C57BL/6J mouse assessed as change in tumor cell morphology into normal tissue at 60 mg/kg, IG administered for 12 days by H and E staining based histopathological analysis; format: functional, organism-based; conditions: time 12.0 day
KG-1 [5] = experiment: Downregulation of SSRP-1 expression in human KG-1 cells assessed as chromatin damage at 0.5 to […] measured after 24 hrs by Western blot analysis; format: functional, cell-based; conditions: dose 0.5-2.5 µM
[6] = Toxicity in C57BL/6J mouse implanted with mouse B16-F10 cells assessed as lung damage at 60 mg/kg, IG administered for 12 days H and E staining based histopathological analysis; format: organism-based; conditions: in vivo, po, 288 h, time 12 day
KG-1 [7] = experiment: Downregulation of SPT16 expression in human KG-1 cells assessed as chromatin damage at 0.5 to […] measured after 24 hrs by Western blot analysis; format: functional, cell-based; conditions: dose 0.5-2.5 µM
[8] = Toxicity in C57BL/6J mouse implanted with mouse B16-F10 cells assessed as heart damage at 60 mg/kg, IG administered for 12 days H and E staining based histopathological analysis; format: organism-based; conditions: in vivo, po, 288 h, time 12 day
[9] = Toxicity in C57BL/6J mouse implanted with mouse B16-F10 cells assessed as glomerular structure damage in kidney at 60 mg/kg, IG administered for 12 days H and E staining based histopathological analysis; format: organism-based; conditions: in vivo, po, 288 h, time 12 day
B16-F10 [10] = experiment: Antitumor activity against mouse B16-F10 cells xenografted in C57BL/6J mouse assessed as reduction in tumor heterogeneity at 60 mg/kg, IG administered for 12 days by H and E staining based histopathological analysis; format: functional, organism-based; conditions: time 12.0 day
[11] = Toxicity in C57BL/6J mouse implanted with mouse B16-F10 cells assessed as liver damage at 60 mg/kg, IG administered for 12 days H and E staining based histopathological analysis; format: organism-based; conditions: in vivo, po, 288 h, time 12 day
B16-F10 [12] = experiment: Antitumor activity against mouse B16-F10 cells implanted in C57BL/6J mouse assessed as reduction on tumor weight at 60 mg/kg, IG administered for 12 days; format: functional, organism-based; conditions: time 12.0 day
B16-F10 [13] = experiment: Antitumor immunity against mouse B16-F10 cells implanted in C57BL/6J mouse assessed as increase in proportion of T cells in spleen by flow cytometry analysis; format: functional, cell-based
[14] = Toxicity in C57BL/6J mouse implanted with mouse B16-F10 cells assessed as spleen damage at 60 mg/kg, IG administered for 12 days H and E staining based histopathological analysis; format: organism-based; conditions: in vivo, po, 288 h, time 12 day
KG-1 [15] = experiment: Induction of apoptosis in human KG-1 cells assessed as total apoptotic cells at 1 uM measured after 24 hrs by Annexin V-FITC/propidium iodide staining based flow cytometry analysis relative to control; format: functional
B16-F10 [16] = experiment: Antitumor activity against mouse B16-F10 cells implanted in C57BL/6J mouse assessed as reduction on tumor size at 60 mg/kg, IG administered for 12 days; format: functional, organism-based; conditions: time 12.0 day
K562 = experiment: cells; format: functional, cell-based; conditions: Homo sapiens, K562, 48 h
Description: Antiproliferative activity against human K562 cells assessed as inhibition of cell growth measured after 48 hrs by MTT assay

Histone deacetylase 8 = biological target: T1, Histone deacetylase 8 (Homo sapiens, UniProt Q9BY41); experiment: Inhibition of HDAC8 (unknown origin) using fluorogenic substrate incubated for 30 mins by fluorescence based assay
T1 sequence (Q9BY41 whole entry): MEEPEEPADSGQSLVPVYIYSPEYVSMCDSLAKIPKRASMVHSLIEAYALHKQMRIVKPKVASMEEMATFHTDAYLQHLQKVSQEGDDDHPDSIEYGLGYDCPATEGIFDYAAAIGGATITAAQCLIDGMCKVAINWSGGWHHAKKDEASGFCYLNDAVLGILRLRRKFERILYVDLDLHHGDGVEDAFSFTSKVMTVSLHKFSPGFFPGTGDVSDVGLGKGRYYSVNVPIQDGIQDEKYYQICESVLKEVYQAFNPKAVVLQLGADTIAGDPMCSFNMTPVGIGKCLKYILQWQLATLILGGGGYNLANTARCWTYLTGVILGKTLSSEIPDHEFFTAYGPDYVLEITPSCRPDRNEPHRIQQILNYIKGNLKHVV

[17] = biological target: T2, Protein deacetylase HDAC6 (Homo sapiens, UniProt Q9UBN7); experiment: Inhibition of HDAC6 (unknown origin) using fluorogenic substrate incubated for 30 mins by fluorescence based assay
T2 sequence (Q9UBN7 whole entry): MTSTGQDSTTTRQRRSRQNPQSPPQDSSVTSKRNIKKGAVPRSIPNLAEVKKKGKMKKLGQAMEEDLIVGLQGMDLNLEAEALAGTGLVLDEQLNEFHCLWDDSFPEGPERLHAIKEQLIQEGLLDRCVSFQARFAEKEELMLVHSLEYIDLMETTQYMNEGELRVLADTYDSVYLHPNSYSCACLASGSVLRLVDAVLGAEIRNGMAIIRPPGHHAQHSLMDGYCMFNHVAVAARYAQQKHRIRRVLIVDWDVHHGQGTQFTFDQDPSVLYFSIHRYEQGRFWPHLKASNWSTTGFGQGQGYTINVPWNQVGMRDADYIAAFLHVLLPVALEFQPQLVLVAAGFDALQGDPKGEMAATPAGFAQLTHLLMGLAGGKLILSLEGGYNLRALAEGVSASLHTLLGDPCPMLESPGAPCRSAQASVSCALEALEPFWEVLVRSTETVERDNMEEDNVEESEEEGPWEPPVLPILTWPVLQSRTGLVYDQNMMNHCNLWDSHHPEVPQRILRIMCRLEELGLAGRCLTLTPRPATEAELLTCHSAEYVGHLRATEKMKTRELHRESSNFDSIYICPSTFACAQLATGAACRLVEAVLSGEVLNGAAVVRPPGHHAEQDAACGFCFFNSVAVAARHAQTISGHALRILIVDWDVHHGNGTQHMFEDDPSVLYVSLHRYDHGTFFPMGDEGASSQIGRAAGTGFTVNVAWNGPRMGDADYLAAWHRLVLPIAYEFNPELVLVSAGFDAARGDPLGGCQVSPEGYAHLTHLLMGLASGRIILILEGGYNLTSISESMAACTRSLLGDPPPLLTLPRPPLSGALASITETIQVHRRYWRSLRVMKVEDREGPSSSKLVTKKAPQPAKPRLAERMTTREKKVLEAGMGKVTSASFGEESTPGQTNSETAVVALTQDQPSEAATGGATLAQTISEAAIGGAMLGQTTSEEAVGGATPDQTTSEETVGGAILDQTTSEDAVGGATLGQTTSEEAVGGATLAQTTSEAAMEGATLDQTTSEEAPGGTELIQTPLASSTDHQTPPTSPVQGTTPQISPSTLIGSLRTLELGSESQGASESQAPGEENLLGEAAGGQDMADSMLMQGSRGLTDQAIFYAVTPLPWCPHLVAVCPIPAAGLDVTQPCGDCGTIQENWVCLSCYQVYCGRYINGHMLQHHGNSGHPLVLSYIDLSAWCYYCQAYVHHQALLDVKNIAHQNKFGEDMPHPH

Histone deacetylase 1 = Histone deacetylase 1 (Homo sapiens, UniProt Q13547); experiment: Inhibition of HDAC1 (unknown origin) using fluorogenic substrate incubated for 30 mins by fluorescence based assay
Histone deacetylase 1, sequence (Q13547 whole entry): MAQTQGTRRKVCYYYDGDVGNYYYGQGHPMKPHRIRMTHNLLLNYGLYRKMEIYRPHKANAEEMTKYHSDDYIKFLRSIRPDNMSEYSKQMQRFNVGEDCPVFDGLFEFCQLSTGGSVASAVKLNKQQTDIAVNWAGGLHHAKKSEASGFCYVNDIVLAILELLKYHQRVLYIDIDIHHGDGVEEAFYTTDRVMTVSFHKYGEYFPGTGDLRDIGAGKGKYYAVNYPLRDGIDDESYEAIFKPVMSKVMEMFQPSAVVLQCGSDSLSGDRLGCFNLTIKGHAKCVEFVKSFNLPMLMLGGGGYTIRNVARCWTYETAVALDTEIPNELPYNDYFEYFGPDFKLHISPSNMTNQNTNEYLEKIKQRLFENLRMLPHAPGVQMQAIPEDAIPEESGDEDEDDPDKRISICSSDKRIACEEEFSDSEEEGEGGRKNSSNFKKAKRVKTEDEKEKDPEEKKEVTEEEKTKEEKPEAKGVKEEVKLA

HEL = experiment: cells; format: functional, cell-based; conditions: Homo sapiens, 48 h
Description: Antiproliferative activity against HEL cells assessed as inhibition of cell growth measured after 48 hrs by MTT assay

HepG2 = experiment: cells; format: functional, cell-based; conditions: Homo sapiens, HepG2, 48 h
Description: Antiproliferative activity against human HepG2 cells assessed as inhibition of cell growth measured after 48 hrs by MTT assay

Histone deacetylase 2 = Histone deacetylase 2 (Homo sapiens, UniProt Q92769); experiment: Inhibition of HDAC2 (unknown origin) using fluorogenic substrate incubated for 30 mins by fluorescence based assay
Histone deacetylase 2, sequence (Q92769 whole entry): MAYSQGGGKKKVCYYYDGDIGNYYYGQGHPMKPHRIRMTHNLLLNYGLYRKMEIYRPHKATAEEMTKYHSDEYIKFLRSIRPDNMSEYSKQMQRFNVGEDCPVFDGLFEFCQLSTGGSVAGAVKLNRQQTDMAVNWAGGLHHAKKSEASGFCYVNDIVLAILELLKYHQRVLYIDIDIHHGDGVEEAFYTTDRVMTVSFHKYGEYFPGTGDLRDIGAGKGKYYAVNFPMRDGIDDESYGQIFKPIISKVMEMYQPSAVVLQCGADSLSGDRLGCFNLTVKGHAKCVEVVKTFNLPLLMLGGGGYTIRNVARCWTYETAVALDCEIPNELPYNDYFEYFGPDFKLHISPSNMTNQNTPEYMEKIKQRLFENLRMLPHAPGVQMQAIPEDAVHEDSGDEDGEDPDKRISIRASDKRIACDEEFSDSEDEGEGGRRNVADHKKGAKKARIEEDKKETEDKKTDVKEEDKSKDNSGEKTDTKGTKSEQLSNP

PC-3 = experiment: cells; format: functional, cell-based; conditions: Homo sapiens, PC-3, 48 h
Description: Antiproliferative activity against human PC3 cells assessed as inhibition of cell growth measured after 48 hrs by MTT assay

DNA = experiment: Binding affinity to nuclear DNA in human HepG2 cells assessed as colocalization of acridine orange-test compound signal at 5 uM by confocal fluorescence microscopic analysis; format: functional, cell-based
Calf thymus DNA [18] = experiment: Binding affinity to calf thymus DNA assessed as change in entropy at 500 microM by isothermal titration calorimetric analysis; format: nucleic-acid assay; conditions: Bos taurus
Calf thymus DNA [19] = experiment: Binding affinity to calf thymus DNA assessed as increase in absorption at 20 uM by UV-vis absorption spectroscopy; format: nucleic-acid assay; conditions: Bos taurus

Compound: O=C(CCCCOc1cccc(-c2nc3ccccc3[nH]2)c1)NO
- IC50 (Histone deacetylase): 194.4 nM

Compound: CN1CCN(c2ccc3nc(-c4ccc5nc(-c6ccc(O)cc6)[nH]c5c4)[nH]c3c2)CC1
- IC50 (KG-1 [1]): 42000 nM

Compound: O=C(CCCCCCOc1cccc(-c2nc3ccc(-c4nc5ccccc5[nH]4)cc3[nH]2)c1)NO
- IC50 (Histone deacetylase): 17.9 nM

Compound: O=C(COc1cccc(-c2nc3ccccc3[nH]2)c1)NO
- IC50 (Histone deacetylase): > 1000 nM

Compound: O=C(COc1ccc(-c2nc3ccccc3[nH]2)cc1)NO
- IC50 (Histone deacetylase): 156.7 nM

Compound: O=C(CCCCCCCOc1ccc(-c2nc3ccccc3[nH]2)cc1)NO
- IC50 (Histone deacetylase): 49.3 nM

Compound: O=C(CCCCCOc1cccc(-c2nc3ccccc3[nH]2)c1)NO
- IC50 (Histone deacetylase): 118.6 nM

Compound: O=C(CCCCCCC(=O)Nc1ccccc1)NO [VORINOSTAT]
- Activity (B16-F10 [2]): Active
- Activity [3]: Non-Toxic
- Activity (B16-F10 [4]): Active
- Activity (KG-1 [5]): inactive
- Activity [6]: Non-Toxic
- Activity (KG-1 [7]): inactive
- Activity [8]: Non-Toxic
- Activity [9]: Toxic
- Activity (B16-F10 [10]): Active
- Activity [11]: Non-Toxic
- IC50 (KG-1 [1]): 70 nM
- Activity (B16-F10 [12]): Active
- Activity (B16-F10 [13]): Active
- Activity [14]: Non-Toxic
- Activity (KG-1 [15]): 18.2%
- Activity (B16-F10 [16]): Active

Compound: O=C(CCCCCOc1ccc(-c2nc3ccccc3[nH]2)cc1)NO
- IC50 (Histone deacetylase): 76 nM

Compound: O=C(CCCCCCOc1ccc(-c2nc3ccccc3[nH]2)cc1)NO
- IC50 (Histone deacetylase): 40.3 nM

Compound: O=C(CCCCOc1ccc(-c2nc3ccccc3[nH]2)cc1)NO
- IC50 (Histone deacetylase): 189.1 nM

Compound: O=C(CCCCCCCOc1cccc(-c2nc3ccc(-c4nc5ccccc5[nH]4)cc3[nH]2)c1)NO
- IC50 (K562): 2900 nM
- IC50 (Histone deacetylase 8): > 20 µM
- IC50 (Histone deacetylase): 7.3 nM
- IC50 [17]: 23 nM
- IC50 (Histone deacetylase 1): 47 nM
- IC50 (HEL): 2300 nM
- IC50 (KG-1 [1]): 1600 nM
- IC50 (HepG2): 16 µM
- IC50 (Histone deacetylase 2): 81 nM
- IC50 (PC-3): 6.9 µM

Compound: O=C(CCCOc1cccc(-c2nc3ccc(-c4nc5ccccc5[nH]4)cc3[nH]2)c1)NO
- IC50 (Histone deacetylase): 50 nM

Compound: O=C(CCCOc1cccc(-c2nc3ccccc3[nH]2)c1)NO
- IC50 (Histone deacetylase): 490.4 nM

Compound: O=C(COc1cccc(-c2nc3ccc(-c4nc5ccccc5[nH]4)cc3[nH]2)c1)NO
- IC50 (Histone deacetylase): > 1000 nM

Compound: O=C(CCCOc1ccc(-c2nc3ccccc3[nH]2)cc1)NO
- IC50 (Histone deacetylase): 981.3 nM

Further lines, with some results ahead:

- IC50 (Histone deacetylase): 20.1 nM
Compound: O=C(CCCCCCCOc1ccc(-c2nc3ccc(-c4nc5ccccc5[nH]4)cc3[nH]2)cc1)NO

- IC50 (Histone deacetylase): 43.62 nM
Compound: O=C(CCCCCOc1ccc(-c2nc3ccc(-c4nc5ccccc5[nH]4)cc3[nH]2)cc1)NO

- IC50 (Histone deacetylase): 304.3 nM
Compound: O=C(CCCCOc1cccc(-c2nc3ccc(-c4nc5ccccc5[nH]4)cc3[nH]2)c1)NO

- IC50 (Histone deacetylase): 27.4 nM
Compound: O=C(CCCCCOc1cccc(-c2nc3ccc(-c4nc5ccccc5[nH]4)cc3[nH]2)c1)NO

- IC50 (Histone deacetylase): 218.8 nM
Compound: O=C(CCCCOc1ccc(-c2nc3ccc(-c4nc5ccccc5[nH]4)cc3[nH]2)cc1)NO

- IC50 (K562): 510 nM
- IC50 (Histone deacetylase 8): > 20 µM
- IC50 (Histone deacetylase): 7.6 nM
- IC50 [17]: 29 nM
- -TdeltaS (Calf thymus DNA [18]): 45.3 kcal/mol
- IC50 (Histone deacetylase 1): 31 nM
- IC50 (HEL): 1900 nM
- Activity (Calf thymus DNA [19]): Active
- IC50 (HepG2): 11 µM
- IC50 (Histone deacetylase 2): 32 nM
- IC50 (PC-3): 4.4 µM
Compound: O=C(CCCCCCOc1ccc(-c2nc3ccc(-c4nc5ccccc5[nH]4)cc3[nH]2)cc1)NO
- Activity (DNA): Active
- IC50 (KG-1 [1]): 1400 nM

- IC50 (Histone deacetylase): > 1000 nM
Compound: O=C(COc1ccc(-c2nc3ccc(-c4nc5ccccc5[nH]4)cc3[nH]2)cc1)NO

- IC50 (Histone deacetylase): > 1000 nM
Compound: O=C(CCCOc1ccc(-c2nc3ccc(-c4nc5ccccc5[nH]4)cc3[nH]2)cc1)NO
